In patent publication US20170226507A1, “COORDINATE CONTROL OF PATHOGENIC SIGNALING BY THE MIR-130/301 FAMILY IN PULMONARY HYPERTENSION AND FIBROPROLIFERATIVE DISEASES” (The Brigham and Women's Hospital, Inc., priority 2014, published 2017):

Experiments:
Format in all cases: cell-based, human
STAT3 = STAT3 phosphorylation in PASMCs (conditioned media from PAECs or endothelin-1; immunoblot); conditions: conditioned media from transfected PAECs (mimic: normoxic, tiny-LNA: hypoxic conditioning)
Procedure: (§1) (FIG. 40A) A schematic diagram of co-culture experiments: conditioned media from transfected PAECs (miRNA, anti-miRNA, tiny-LNA or siRNA under normoxic or hypoxic conditions) were filtered and applied onto naïve PASMCs cultured in matrigel. At specific times, PASMCs or PASMC-matrigel cultures were arrested and analyzed for STAT3 activation (phosphorylation) or contraction, respectively.
(§2) 50000 PASMC were embedded in 100 ul of matrix gel as previous described (Gagiolli et al) and plated into well of a 96 well plate. After 1 h at 37° C., these matrices were overlaid with 100 ul of conditioned PAECs serum-free medium (transfected with siRNA, miRNA or anti-miRNA and supplemented with Ambriesentan 10 uM). Every 12 h, medium was changed and at day 4 the gels were photographed and the relative diameter of the well and the gel were measured using ImageJ. The percentage contraction was calculated using the formula 100*(well diameter−gel diamter)/well diameter. For the co-culture experiment, conditioned media from PAEC transfected as indicated were applied on PASMCs or Fibroblast previously starved (24 h). Cells were collected at different time and analyzed by western blotting.
Cells were lysed in RIPA buffer (Santa Cruz Biotechnology) and the protein concentration determined using a Bradford assay (Biorad). Protein lysate ([…]) were resolved by SDS-PAGE and transferred onto a PVDF membrane (Biorad). Membranes were blocked in 5% non-fat milk in TN buffer (50 mM Tris-HCl pH 7.4, 150 mM NaCl) and incubated in the presence of the primary and then secondary antibodies. After washing in TN buffer containing 0.1% Tween, immunoreactive bands were visualized with the ECL system (Amersham Biosciences). […] Primary antibodies for STAT3 (#9139) and P-STAT3 (Tyr-705; #9145) were purchased from Cell Signaling. Primary antibodies against actin (ab 3280), was obtained from Abcam. Appropriate secondary antibodies (anti-rabbit and anti-mouse) coupled to HRP were used (Santa Cruz Biotechnology).

PASMCs = assay: Contraction assay of PASMCs in matrigel; conditions: conditioned media from transfected PAECs; rosiglitazone in PAECs; ambrisentan on PASMCs
Procedure: as §1, §2

PAAFs = PAAFs in soft or stiff matrix: fibrotic gene expression, immunoblot, collagen secretion; conditions: PAAFs
Procedure: Cell Culture and Reagents: Primary human pulmonary arterial adventitial fibroblast cells (PAAFs) were purchased and propagated in FGM cell culture media (Lonza). Experiments were performed at passages 3 to 6. Primary human pulmonary fibroblast cells (PFs) were purchased and propagated in FGM cell culture media (Lonza). Primary human pulmonary arterial endothelial cells (PAECs) were purchased and propagated in EGM-2 cell culture media (Lonza). Experiments were performed at passages 3 to 6. Primary human pulmonary arterial smooth muscle cells (PASMCs) were purchased and propagated in SmGM-2 cell culture media (Lonza). Experiments were performed at passages 3 to 9. HEK293T cells (American Type Culture Collection) were used and cultivated in DMEM containing 10% fetal bovine serum (FBS). Cells were propagated in coated collagen plastic (50 ug/mL) at 37° C. in a humidified 5% CO2 atmosphere. Collagen-coated hydrogel were purchased.
3D cell culture: Protocol was adapted from previously published protocol (Aragona M et al, 2013 Cell). Cells were embedded in a mixture of Growth Factor Reduced Matrigel (BD Biosciences) and Collagen-I (BD Biosciencres). Collagen-I solution was neutralized on ice with 0.1M NaOH in PBS and adjusted with 0.1N HCl to bring the pH of the solution to 7.5. The Collagen-I solution was then mixed on ice with Matrigel to obtain a final concentration of 1.2 mg/ml (soft matrices) or 3 mg/ml (stiff matrices). Cells were trypsinized, counted, resuspended in growth medium; then, 1 volume of cells was mixed with 1 volume of the ECM mix. 6-well plated were precoated with 1 ml of cellfree 50% medium/50% ECM, and left in the incubator until gelled; then, cells were seeded in drop on top of the pregelled ECM. After gelling, wells were supplemented with normal growth medium, which was changed every 2 days during the experiments.
Oligonucleotides and Transfection: Pre-miRNA oligonucleotides (pre-miR-130a, negative control pre-miR-NC1 and premiR-NC2) and custom designed tiny LNA oligonucleotides (tiny-130: 5′-[…]-3′ (SEQ ID NO: 52), and tiny-NC 5′-[…]-3′ (SEQ ID NO: 54)) were purchased from Life Technologies/Ambion and Exiqon, respectively. siRNAs for PPARγ and OCT4/POU5F1 were purchased from Santa Cruz Biotechnology. siRNA for TIMP2 was purchased from Life Technologies. On Target Plus siRNAs for YAP1, TAZ (WWTR1), LRP8 and scrambled control were purchased from ThermoScientific/Dhermacon. PAAF, PF, PAEC and PASMC were plated in collagen-coated dish (50 ug/mL) and transfected 24 h later at 70-80% confluence using pre-miRNA (5 nM), tiny-LNA (20 nM) or siRNA (25 nM) and Lipofectamine 2000 reagent (Life Technologies), according to the manufacturers' instructions. 8 hours after transfection cells were trypsinized and re-plated in the different hydrogel/3D-matrix.
Primary human pulmonary arterial adventitial fibroblast cells (PAAFs) were purchased (ScienCell Research Laboratories) and grown in FGM cell culture media (Lonza). Experiments were performed at passages 3 to 6. Primary human pulmonary arterial endothelial cells (PAECs) were grown in EGM-2 cell culture media (Lonza), and experiments were performed at passages 3 to 6. Primary human pulmonary arterial smooth muscle cells (PASMCs) were cultured in SmGM-2 cell culture media (Lonza), and experiments were performed at passages 3 to 9. HEK293T cells (American Type Culture Collection) were cultivated in DMEM containing 10% fetal bovine serum (FBS). […]

tiny-LNA-130: fully LNA-modified tiny LNA oligonucleotide 5′-ATTGCACT-3′ (SEQ ID NO: 3) complementary to the seed region of the miR-130/301 family (all LNA, backbone and methylation of C not given here)
STAT3 phosphorylation in PASMCs (STAT3): abrogated
actinomyosin contraction of PASMCs (PASMCs): abrogated
collagen content of conditioned media (collagen secretion) (PAAFs): decreased
ApoE (PAAFs; immunoblot, tiny-LNA-130 in stiff conditions): increased
collagen transcripts, LOX and CTGF (PAAFs; mimic in soft matrix, tiny-LNA-130 in high ECM stiffness): decreased
